Reference: patent US6455541B1, “Suppression, by 5-lipoxygenase inhibitors, of bone resorption” (Board of Regents, The University of Texas System, priority 1994, dated 2002)
Several values for one entry are separate records, joined by “and”; a condition that tells them apart may be missing. Identical values can stand only once. Entries after “also recorded” stand apart in the source; their conditions may differ. Like-named read-outs stand apart in the source and are kept apart here.

How the values were obtained:
[1] = tested on: neonatal mouse calvariae; test: Neonatal mouse (murine) calvarial assay, 45Ca release; assay type: cell-based
Procedure: The assay was performed as described by Gowen et al. (1983). Timed pregnant mice were injected with ^45Ca 2 days before parturition. Half-calvaria were removed from the 1-2-day-old pups and preincubated for 24 h in BGJb medium at 37° C. in a humidified atmosphere of 5% CO2 before transfer to fresh media with or without test substances for 48 h. The bones were incubated for a further 72 h and media and bones collected. Bone-resorbing activity was expressed as the percentage of the total ^45Ca released into the medium.

[2] = tested on: isolated avian osteoclasts; test: TRAP activity in isolated avian osteoclasts; assay type: cell-based, Gallus domesticus
Procedure: Avian osteoclasts were isolated from medullary bone of laying White Leghorn hens Gallus domesticus (Pioneer Animal Supply, Kingswheel, Ohio) as described previously by Zambonin-Zallone and Teti (1981). In brief, bone marrow suspensions from the medullary bone of femora were filtered through Nytex cloth (110 μm, t'etko, Elmsford, N.Y.), centrifuged for 5 min at 1200 rpm, and the cell pellet resuspended in 0.2% NaCl for 3 min to lyse erythrocytes. After layering the cells on 100% fetal bovine serum for 1 h, sedimented cells were further filtered through Nytex filters (55 μm). Cells were harvested, resuspended in α-minimal Eagle's medium (GIBCO) containing 10 fetal bovine serum, with penicillin (100 units/ml), streptomycin (100 μg/ml), and Ara-C, to inhibit proliferation of nonosteoclastic cells. Cells were plated in 24- or 48-well plates (Costar, Cambridge, Mass.) at 1×10^4 cells/well and incubated at 37° C. in 10% CO2 humidified air for 48 h, after which they were washed to remove nonadherent cells. When matured osteoclasts were observed experiments were begun and terminated within 48 h.
(§1) Osteoclast TRAP activity was measured using fluorescence spectroscopy as described by Chambers et al. (1987) with minor modifications. In brief, media from osteoclast cultures were harvested and stored at −70° C. until ready for assay.
(§2) The cells were washed with phosphate-buffered saline and harvested in 0.5 ml of Triton X-100 (0.05%, w/v). Aliquots of media or lysate 30 μl) were incubated with 170 μl of 2 mM methylumbelliferyl phosphate, pH 5.0, in 0.48 M acetate buffer (0.48 M sodium acetate, 0.48 M acetic acid, pH 5.0) and 30 mM tartaric acid. Samples were incubated for 30 min at 37° C. and the reaction terminated with 100 μl of stop solution containing 50 mM glycine, 50 mM EDTA, pH 10.4. Fluorescence was measured at excitation 360 nm and emission 448 nm using a fluorimeter (Fluoroskan, Flow Instruments). Enzyme activity was expressed as micromoles of methylumbelliferyl phosphate hydrolyzed/min/μg of protein and the protein content measured by the technique of Lowry et al. (1951).

[3] = tested on: isolated 23C6(+) human giant cells of bone; test: TRAP activity in isolated human giant cells; assay type: cell-based
Procedure: as §1, §2
Human giant cell tumors (normally discarded after surgery) were minced and passed through 1#40SS wire mesh screen, allowed to settle for 5 min, and the cell suspension above the sediment collected. […]

[4] = tested on: isolated rat osteoclasts; test: Disaggregated rat osteoclast pit formation assay on sperm whale dentine; assay type: cell-based
Procedure: (§3) Quantitation of the effects of isolated osteoclasts on calcified matrices was determined using minor modifications of the disaggregated osteoclast resorption assay as described by Boyde et al. (1984). Sperm whale dentine (0.25×7×7 mm) was prepared using a Buehler low speed diamond saw (Buehler, Lake Bluff, Ill.) followed by sonication (15 min) in several changes of distilled water. Slices were sterilized using ultraviolet light.
Neonatal Sprague-Dawley rats (2-3 days) were sacrificed by decapitation, the femurs and tibias were removed, scraped free of adherent tissue, and trimmed free of the epiphyses. The bones from one litter were combined and quickly minced using a scalpel blade in 2 ml of 199 medium and then vigorously mixed with a pipette in an 8-ml tube, allowed to settle for 10 s, and then 100 μl of the suspension was added to each well for a total of 16 wells in a 48-well microtiter plate containing sperm whale dentine (approximately four neonates are used per 16 wells). The cells were incubated at 37° C. for 30 min at which time the dentine was removed, washed in media, and placed in a fresh 48-well plate containing 250 μl of test medium.
(§4) Osteoclasts were stained for TRAP and counted and then pit numbers were counted following toluidine blue (0.1% w/v) staining by light microscopy. The plan area of matrix resorbed was quantitated using a computer-assisted morphometric program on a Bioquant System IV analysis system (R & M Biometrics, Nashville, Tenn.).
Quantitation of the effects of isolated neonatal rat osteoclasts on calcified matrices was determined using minor modifications of the disaggregated osteoclast resorption assay as described by Boyde et al (1984). Briefly rat osteoclasts isolated as described by Chambers et al. (1983) were dispersed on prewetted (AMEM plus 5% FBS) slices of sperm whale dentine. Cultures were performed in 48 well-microtiter plates in humidified air (10% CO2) at 37° C. in αMEM medium (one slice/well in 200 μl medium). Numbers of osteoclasts and resorption lacunae were quantitated as described above for the avian osteoclasts.

[5] = tested on: isolated 23C6+ human giant cells; test: Pit formation by isolated human giant cells on sperm whale dentine; assay type: cell-based
Procedure: as §3, §4
Human giant cell tumors (normally discarded after surgery) were minced and passed through 1#40SS wire mesh screen, allowed to settle for 5 min, and the cell suspension above the sediment collected. The cells were incubated with 23C6 monoclonal antibody that identifies the osteoclast vitronectin receptor (generously provided by Dr. Michael Horton) (1:10 dilution of hybridoma supernatant/10^6 cells) at 4° C. in serum-free medium for 30 min, after which immunomagnetic beads coated with anti-mouse IgG (Dynabead, Dynal, Inc., Great Neck, N.Y.) were added to the cell suspension. […]

[6] = tested on: C433 cells; test: Radioimmunoassay of 5-HETE in C433-conditioned media; assay type: cell-based, human; conditions: +1,25-(OH)2 vitamin D3 10^−8 M, duplicate
Procedure: The radioimmunoassays for 5-HETE were purchased from Advanced Magnetics, Inc. (Cambridge, Mass.).
(§5) C433 cells were grown in 10% fetal bovine serum (Whittaker, Walkersville, Md.) 50% RPMI, 50% McCoys (Flow, McLean, Va.) until a density of 10^4 cells/ml was obtained, at which time the cells were harvested, washed, […] This conditioned medium was applied to a prewetted C18 Sep-Pak (Millipore, Waters, Milford, Mass.), and bound material was extracted using ethyl acetate. This material was dried under nitrogen and resuspended in water, it acetic acid and analyzed by high pressure measure liquid chromatography (HPLC) (Waters, Milford, Mass.) applied to a C8 semipreparative 25 cm×10 mm reverse phase column (Keystone Scientific, Inc., Bellefonte, Pa.) at 2 ml/min. The gradient was 0-100% methanol, 1% acetic acid over 60 min with 6-ml fractions collected. The fractions were dried under nitrogen, and those fractions to be assayed for osteoclast stimulating activity were stabilized with 20 μl of 10% bovine serum albumin. Fractions to be used for gas chromatography-mass spectrometric analysis were prepared for derivatization.
To confirm that C433-conditioned medium contained these 5-LO metabolites and that production was hormonally regulated, radioimmunoassays were performed for 5-HETE using commercially available kits. […]

[7] = tested on: C433 cells; test: Production of osteoclast-stimulating activity by C433 cells (conditioned medium bioassayed for TRAP in avian osteoclasts); assay type: cell-based, human; conditions: flurbiprofen 10^−5 M; indomethacin 10^−6 M; nordihydroguaiaretic acid 10^−6, 10^−5 or 10^−4 M
Procedure: FIG. 3A, FIG. 3B, FIG. 3C and FIG. 3D. Chemical characterization of activity. FIG. 3A. C433-conditioned medium was treated with ultraviolet-light (UV) for 24 h or placed in a boiling water bath (100° C.) for 15 min and bioassayed. FIG. 3B. amino peptidase M (A), carboxypeptidase (C), or Pronase-CB (P) were incubated in the presence of C433-conditioned medium for 12 h at 37° C. FIG. 3C. […] The resultant conditioned medium was bioassayed for activity. FIG. 3D. […] Conditioned medium was bioassayed for induction of TRAP activity in avian osteoclasts.
as §5, with “washed, and placed in serum-free DMEM plus 10^−8 M, 1,25-(OH)2D3 for 48 h before harvest of conditioned medium.” for “washed,”

[8] = Lymphotoxin 5 × 10^−9M + NDGA 10^−5M

## 5-hydroxyeicosatetraenoic acid [5-HETE]
[1]
  stimulation of bone resorption in neonatal mouse calvariae (in words): stimulated bone resorption
[2]
  stimulation of TRAP activity in avian osteoclasts (in words): stimulated TRAP activity
[2]; 10^−8 M stimulates suboptimally
  concentration of optimal stimulation of TRAP activity: 10^−10 M
[2]; 10^−10 M, 48 h
  stimulation of TRAP activity: maximally stimulated
[3]
  stimulation of TRAP activity in human giant cells (in words): stimulated TRAP activity
[3]; 10^−10 M, 48 h
  stimulation of TRAP activity: maximally stimulated
[4]
  pit formation by isolated rat osteoclasts (in words): caused pit formation
[5]
  pit formation by human giant cells (in words): caused pit formation

## C=C1/C(=C\C=C2/CCC[C@]3(C)[C@@H]([C@H](C)CCCC(C)(C)O)CC[C@@H]23)C[C@@H](O)C[C@@H]1O [1,25D3, 1,25 dihydroxyvitamin D3]
[1]; 1,25D3 10^−10M, IL-1 1 × 10^−10M
  45Ca release, factor alone (Table IV): 37.2%
[1]; IL-1 5 × 10^−10M, TNF 2 × 10^−10M, Lymphotoxin 5 × 10^−9M, PTH 4 ng/ml, 1,25D3 10^−10M
  45Ca release, Factor alone (Table II): 35.3% and 31.8% and 37.0%
[6]; 6 h
  5-HETE in C433-conditioned media: 3.36 pg/mL and 3.53 pg/mL
[6]; 12 h
  5-HETE in C433-conditioned media: 11.07 pg/mL and 11.68 pg/mL

## CCCCC/C=C\C\C=C/C=C/C=C/[C@@H](SC[C@H](NC(=O)CC[C@H](N)C(=O)O)C(=O)NCC(=O)O)[C@@H](O)CCCC(=O)O [LTC4, leukotriene C4]
[5]; 10^−10 M
  stimulation of pit formation: stimulated

## CC(Cc1ccc(O)c(O)c1)C(C)Cc1ccc(O)c(O)c1 (stereo not drawn) [NDGA, nordihydroguaiaretic acid]
[1]; 1,25(OH)2 vitamin D3 as factor
  inhibition of 1,25(OH)2 vitamin D3-induced bone resorption (in words): no significance was observed
[1]; 1,25D3 10^−10M + NDGA 10^−5M
  45Ca release, Factor + NDGA: 31.7% and 29.2% and 32.5%
  % Inhibition: 19.8% and 24.1%
[1]; AAY4 LPS 25 μg/ml + NDGA 10^−5M
  Ca^45 Release, LPS + NDGA: 13.6%
[1]; AaY4 LPS 50 μg/ml + NDGA 10^−5M
  45Ca release, LPS + NDGA: 22.2%
[1]; AaY4 LPS and/or WR14 LPS
  inhibition of LPS-induced bone resorption (in words): significantly inhibited; also recorded: Significant inhibition
[1]; IL-1 5 × 10^−10M + NDGA 10^−5M
  45Ca release, Factor + NDGA: 23.4% and 24.6%
  % Inhibition: 32.8%
[1]; IL-1 as factor
  inhibition of IL-1-induced bone resorption (in words): significantly inhibits
[1]; [8]
  45Ca release, Factor + NDGA: 26.8% and 35.5%
  % Inhibition: 31.7%
[1]; Mus musculus, 1,25D3 10^−10M + NDGA 10^−5M, read-out: % Inhibition
  inhibition at 10 µM: 19.6%
[1]; Mus musculus, AAY4 LPS 25 μg/ml + NDGA 10^−5M, read-out: % Inhibition
  inhibition at 10 µM: 120%
[1]; Mus musculus, AaY4 LPS 50 μg/ml + NDGA 10^−5M, read-out: % Inhibition
  inhibition at 10 µM: 57.2%
[1]; Mus musculus, IL-1 5 × 10^−10M + NDGA 10^−5M, read-out: % Inhibition
  inhibition at 10 µM: 30%
[1]; Mus musculus, Lymphotoxin 5 × 10^−9M + NDGA 10^−5M
  inhibition at 10 µM: 48.8%
[1]; Mus musculus, TNF 2 × 10^−10M + NDGA 10^−5M, read-out: % Inhibition
  inhibition at 10 µM: 43.2%
[1]; Mus musculus, WR14 LPS 50 ng/ml + NDGA 10^−5M, read-out: % Inhibition
  inhibition at 10 µM: 57.6%
[1]; PTH 4 ng/ml + NDGA 10^−5M
  45Ca release, Factor + NDGA: 30.6% and 31.2% and 28.6%
[1]; PTH as factor
  inhibition of PTH-induced bone resorption (in words): One out of three experiments showed significant inhibition
[1]; TNF 2 × 10^−10M + NDGA 10^−5M
  45Ca release, Factor + NDGA: 27.8% and 31.9%
  % Inhibition: 33.5%
[1]; TNF as factor
  inhibition of TNF-induced bone resorption (in words): significantly inhibits
[1]; WR14 LPS 50 ng/ml + NDGA 10^−5M
  % Inhibition: 40.8%
[1]; lymphotoxin as factor
  inhibition of lymphotoxin-induced bone resorption (in words): significantly inhibits
[1]; two different preparations of lipopolysaccharide
  NDGA inhibition of lipopolysaccharide-induced bone resorption: Greater than 50%
[4]; NDGA 10^−6M, MK886 1 μg/ml, ZM 230,487 10 ng/ml, 20 hours
  inhibition of PTH and PTHrP-induced bone resorption: inhibition of the bone resorption was seen
[4]; PTH and PTHrP-induced bone resorption, NDGA 10^−6M, MK886 1 μg/ml, ZM 230,487 10 ng/ml
  order of inhibitory effectiveness: ZM230487>MK886>NDGA
[7]
  effect on production of C433 activity: completely blocked
